{
  "source": "paper PMC5482217",
  "about": "(Journal of the American Chemical Society, 2016)",
  "key": {"[1]": {"system": "S. aureus clinical isolate that forms biofilms", "format": "cell-based"}, "[2]": {"system": "S. aureus", "format": "cell-based"}, "[3]": {"system": "M. smegmatis"}, "[4]": {"system": "B. abortus", "format": "cell-based"}, "[5]": {"system": "M. tuberculosis", "conditions": "after 10 days; cited from earlier work"}, "[6]": {"system": "S. flexneri", "format": "cell-based"}, "[7]": {"system": "E. coli", "format": "cell-based"}, "[8]": {"system": "S. enteritidis", "format": "cell-based"}, "[9]": {"system": "M. tuberculosis", "format": "cell-based"}, "[10]": {"system": "C. elegans", "conditions": "in vivo, 50 µM"}},
  "data": [
    {"smiles": "NC[C@H]1O[C@H](O[C@H]2[C@H](O)[C@@H](O[C@H]3O[C@H](CO)[C@@H](O)[C@H](N)[C@H]3O)[C@H](N)C[C@@H]2N)[C@H](O)[C@@H](O)[C@@H]1O", "note": "[kanamycin]", "values": [
      {"measurement": "MIC", "setting": "[1]", "result": 4, "unit": "µM"},
      {"measurement": "MIC", "setting": "[2]", "result": 2, "unit": "µM"},
      {"measurement": "MIC", "setting": "[3]", "result": 8, "unit": "µM"},
      {"measurement": "MIC", "setting": "[4]", "result": 4, "unit": "µM"},
      {"measurement": "reduction in M. tuberculosis levels within THP-1 macrophages", "setting": "[5]", "result": "about 50%"},
      {"measurement": "MIC", "setting": "[6]", "result": 2, "unit": "µM"},
      {"measurement": "MIC", "setting": "[7]", "result": 2, "unit": "µM"},
      {"measurement": "MIC", "setting": "[8]", "result": 16, "unit": "µM"},
      {"measurement": "MIC", "setting": "[9]", "result": 2, "unit": "µM"},
      {"measurement": "viability of C. elegans", "setting": "[10]", "result": "> 90", "unit": "%"}
    ]},
    {"smiles": "CC[C@H](C)[C@H](NC(=O)CN)C(=O)NCC(=O)N[C@@H](C)C(=O)N[C@H](C(=O)N[C@@H](CC(C)C)C(=O)N[C@@H](CCCCN)C(=O)N[C@H](C(=O)N[C@@H](CC(C)C)C(=O)N[C@H](C(=O)N[C@H](C(=O)NCC(=O)N[C@@H](CC(C)C)C(=O)N1CCC[C@H]1C(=O)N[C@@H](C)C(=O)N[C@@H](CC(C)C)C(=O)N[C@H](C(=O)N[C@@H](CO)C(=O)N[C@@H](Cc1c[nH]c2ccccc12)C(=O)N[C@H](C(=O)N[C@@H](CCCCN)C(=O)N[C@@H](CCCNC(=N)N)C(=O)N[C@@H](CCCCN)C(=O)N[C@@H](CCCNC(=N)N)C(=O)N[C@@H](CCC(N)=O)C(=O)N[C@@H](CCC(N)=O)C(N)=O)[C@@H](C)CC)[C@@H](C)CC)[C@@H](C)O)[C@@H](C)O)C(C)C)C(C)C", "note": "[melittin]", "values": [
      {"measurement": "viability of C. elegans", "setting": "[10]", "result": "no live worms"}
    ]}
  ]
}
